Tests used:
Assay type in all cases: in vivo
[1] = system: Triticum aestivum (TRZAS); assay: Post-emergence crop plant compatibility, greenhouse pot test; conditions: vs untreated controls
Procedure, shortened: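 Visual % damage vs untreated controls, scored ~3 weeks post-spray (100% = dead, 0% = as control). Plants in sandy loam, greenhouse; treated at one-leaf stage, 2–3 wk after sowing. WP/EC, aqueous, 0.5% additive, 600 l/ha. Suffixes a/b/c = different dosages.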

[2] = system: Pharbitis purpurea (PHBPU); assay: Post-emergence herbicidal action, greenhouse pot test
Procedure, shortened: (§1)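 Activity was scored by eye about 3 weeks after treatment against untreated plants, where 100% means dead plants and 0% means no difference. Plants at the one-leaf stage received a foliar spray of WP or EC formulations in water plus 0.5% additive (600 l/ha, up to 20 g/ha). Plants were grown in sandy loam pots in a greenhouse for 2–3 weeks before spraying.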

[3] = system: Amaranthus retroflexus (AMARE); assay: as above; conditions: rated visually after about 3 weeks vs untreated controls, 100% = plants have died
Procedure, shortened: as §1

Avena fatua (AVEFA) = assay: as above; conditions: 20 g/ha, rated visually after about 3 weeks vs untreated controls, 100% = plants have died
Procedure, shortened: as §1

Veronica persica (VERPE) = assay: as above
Procedure, shortened: as §1

[4] = system: Polygonum convolvulus (POLCO); assay: as above
Procedure, shortened: as §1

Viola tricolor (VIOTR) = assay: as above
Procedure, shortened: as §1

[5] = system: Abutilon theophrasti (ABUTH); assay: as above; conditions: rated visually after about 3 weeks vs untreated controls, 100% = plants have died
Procedure, shortened: as §1

[6] = system: Matricaria inodora (MATIN); assay: Post-emergence herbicidal action, greenhouse pot test (also comparative test C)
Procedure, shortened: (§2)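 Visual rating against untreated controls, about 3 weeks after spraying, from 0% (like control) to 100% (plants dead). Weeds were treated at the one-leaf stage, 2–3 weeks after sowing in sandy loam, with aqueous WP/EC spray containing 0.5% additive at 600 l/ha. Doses were ≤20 g/ha, or ≤5 g/ha for comparative test C.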

[7] = system: Alopecurus myosuroides (ALOMY); assay: as above; conditions: rated visually after about 3 weeks vs untreated controls, 100% = plants have died
Procedure, shortened: as §2

Setaria viridis (SETVI) = assay: as above
Procedure, shortened: as §2

[8] = system: Echinochloa crus-galli (ECHCG); assay: as above
Procedure, shortened: as §2

Oryza sativa (ORYSA) = assay: Post-emergence crop plant compatibility, greenhouse pot test (also comparative test C); conditions: for Post-emergence action against ORYSA (crop plant compatibility): vs untreated controls
Procedure, shortened: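 Visual damage versus untreated plants (0% = like control, 100% = plants died) was scored about 3 weeks after a post-emergence spray in greenhouse pots. Treatment: one-leaf stage, WP or EC in water at 600 l/ha with 0.5% additive; a/b/c mark different dosages on the same crop.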

## Cn1c(C(F)(F)F)cc(=O)n(-c2cc(Oc3ccccc3OCC(=O)OCC#N)c(Br)cc2F)c1=O [I.8-176, Cyanomethyl (2-{2-bromo-4-fluoro-5-[3-methyl-2,6-dioxo-4-(trifluoromethyl)-3,6-dihydropyrimidin-1(2H)-yl]phenoxy}phenoxy)acetate]
[1]; 1.25 g/ha
  Post-emergence action against TRZAS (crop plant compatibility): 0%
[1]; 5 g/ha
  Post-emergence action against TRZAS (crop plant compatibility): 20%
[2]; Ipomoea purpurea, 504 h, dosage 1.25 g/ha, read-out: Post-emergence action against PHBPU in %
  pest or weed control at 1.25 g/ha: 80%
[2]; Ipomoea purpurea, 504 h, dosage 5 g/ha, read-out: Post-emergence action against PHBPU in %
  pest or weed control at 5 g/ha: 80%
[2]; Ipomoea purpurea, 504 h, dosage 20 g/ha, read-out: Post-emergence action against PHBPU in %
  pest or weed control at 20 g/ha: 100%
[3]; Amaranthus retroflexus, 504 h, 1.25 g/ha, read-out: Post-emergence action at 1.25 g/ha against AMARE in %
  pest or weed control at 1.25 g/ha: 100%
[3]; Amaranthus retroflexus, 504 h, 5 g/ha, read-out: Post-emergence action at 5 g/ha against AMARE in %
  pest or weed control at 5 g/ha: 100%
[3]; Amaranthus retroflexus, 504 h, 20 g/ha, read-out: Post-emergence action at 20 g/ha against AMARE in %
  pest or weed control at 20 g/ha: 100%
Avena fatua (AVEFA); Avena fatua, 504 h, read-out: Post-emergence action at 20 g/ha against AVEFA in %
  pest or weed control at 20 g/ha: 80%
Veronica persica (VERPE); Veronica persica, 504 h, 1.25 g/ha, read-out: Post-emergence action against VERPE
  pest or weed control at 1.25 g/ha: 100%
Veronica persica (VERPE); Veronica persica, 504 h, 5 g/ha, read-out: Post-emergence action against VERPE
  pest or weed control at 5 g/ha: 100%
Veronica persica (VERPE); Veronica persica, 504 h, 20 g/ha, read-out: Post-emergence action against VERPE
  pest or weed control at 20 g/ha: 100%
[4]; Fallopia convolvulus, 504 h, dosage 5 g/ha, read-out: Post-emergence action against POLCO in %
  pest or weed control at 5 g/ha: 80%
[4]; Fallopia convolvulus, 504 h, dosage 20 g/ha, read-out: Post-emergence action against POLCO in %
  pest or weed control at 20 g/ha: 100%
Viola tricolor (VIOTR); Viola tricolor, 504 h, 1.25 g/ha, read-out: Post-emergence action against VIOTR
  pest or weed control at 1.25 g/ha: 90%
Viola tricolor (VIOTR); Viola tricolor, 504 h, 5 g/ha, read-out: Post-emergence action against VIOTR
  pest or weed control at 5 g/ha: 100%
Viola tricolor (VIOTR); Viola tricolor, 504 h, 20 g/ha, read-out: Post-emergence action against VIOTR
  pest or weed control at 20 g/ha: 100%
[5]; Abutilon theophrasti, 504 h, 1.25 g/ha, read-out: Post-emergence action at 1.25 g/ha against ABUTH in %
  pest or weed control at 1.25 g/ha: 100%
[5]; Abutilon theophrasti, 504 h, 5 g/ha, read-out: Post-emergence action at 5 g/ha against ABUTH in %
  pest or weed control at 5 g/ha: 100%
[5]; Abutilon theophrasti, 504 h, 20 g/ha, read-out: Post-emergence action at 20 g/ha against ABUTH in %
  pest or weed control at 20 g/ha: 100%
[6]; Tripleurospermum inodorum, 504 h, dosage 5 g/ha, read-out: Post-emergence action against MATIN in %
  pest or weed control at 5 g/ha: 100%
[6]; Tripleurospermum inodorum, 504 h, dosage 20 g/ha, read-out: Post-emergence action against MATIN in %
  pest or weed control at 20 g/ha: 100%
[7]; Alopecurus myosuroides, 504 h, 5 g/ha, read-out: Post-emergence action at 5 g/ha against ALOMY in %
  pest or weed control at 5 g/ha: 80%
[7]; Alopecurus myosuroides, 504 h, 20 g/ha, read-out: Post-emergence action at 20 g/ha against ALOMY in %
  pest or weed control at 20 g/ha: 100%
Setaria viridis (SETVI); Setaria viridis, 504 h, 20 g/ha, read-out: Post-emergence action against SETVI
  pest or weed control at 20 g/ha: 100%
Setaria viridis (SETVI); Setaria viridis, 504 h, dosage 1.25 g/ha, read-out: Post-emergence action against SETVI in %
  pest or weed control at 1.25 g/ha: 100%
Setaria viridis (SETVI); Setaria viridis, 504 h, dosage 5 g/ha, read-out: Post-emergence action against SETVI in %
  pest or weed control at 5 g/ha: 100%
[8]; Echinochloa crus-galli, 504 h, dosage 5 g/ha, read-out: Post-emergence action against ECHCG in %
  pest or weed control at 5 g/ha: 100%
[8]; Echinochloa crus-galli, 504 h, dosage 20 g/ha, read-out: Post-emergence action against ECHCG in %
  pest or weed control at 20 g/ha: 100%
Oryza sativa (ORYSA); 1.25 g/ha
  Post-emergence action against ORYSA (crop plant compatibility): 0%
Oryza sativa (ORYSA); 5 g/ha
  Post-emergence action against ORYSA (crop plant compatibility): 20%

## CCOCCOC(=O)COc1ccccc1Oc1cc(-n2c(=O)cc(C(F)(F)F)n(C)c2=O)c(F)cc1C#N [I.9-2]
[1]; 1.25 g/ha
  Post-emergence action against TRZAS (crop plant compatibility): 20%
[2]; dosage 1.25 g/ha
  Post-emergence action against PHBPU in %: 100%
[2]; dosage 5 g/ha
  Post-emergence action against PHBPU in %: 100%
[2]; dosage 20 g/ha
  Post-emergence action against PHBPU in %: 100%
[3]; 1.25 g/ha
  Post-emergence action at 1.25 g/ha against AMARE in %: 100%
[3]; 5 g/ha
  Post-emergence action at 5 g/ha against AMARE in %: 100%
[3]; 20 g/ha
  Post-emergence action at 20 g/ha against AMARE in %: 100%
Avena fatua (AVEFA)
  Post-emergence action at 20 g/ha against AVEFA in %: 90%
Veronica persica (VERPE); 1.25 g/ha
  Post-emergence action against VERPE: 100%
Veronica persica (VERPE); 5 g/ha
  Post-emergence action against VERPE: 100%
Veronica persica (VERPE); 20 g/ha
  Post-emergence action against VERPE: 100%
[4]; dosage 5 g/ha
  Post-emergence action against POLCO in %: 100%
[4]; dosage 20 g/ha
  Post-emergence action against POLCO in %: 100%
Viola tricolor (VIOTR); 1.25 g/ha
  Post-emergence action against VIOTR: 100%
Viola tricolor (VIOTR); 5 g/ha
  Post-emergence action against VIOTR: 100%
Viola tricolor (VIOTR); 20 g/ha
  Post-emergence action against VIOTR: 100%
[5]; 1.25 g/ha
  Post-emergence action at 1.25 g/ha against ABUTH in %: 100%
[5]; 5 g/ha
  Post-emergence action at 5 g/ha against ABUTH in %: 100%
[5]; 20 g/ha
  Post-emergence action at 20 g/ha against ABUTH in %: 100%
[6]; dosage 5 g/ha
  Post-emergence action against MATIN in %: 100%
[6]; dosage 20 g/ha
  Post-emergence action against MATIN in %: 100%
[7]; 5 g/ha
  Post-emergence action at 5 g/ha against ALOMY in %: 80%
[7]; 20 g/ha
  Post-emergence action at 20 g/ha against ALOMY in %: 100%
Setaria viridis (SETVI); 20 g/ha
  Post-emergence action against SETVI: 100%
Setaria viridis (SETVI); dosage 1.25 g/ha
  Post-emergence action against SETVI in %: 100%
Setaria viridis (SETVI); dosage 5 g/ha
  Post-emergence action against SETVI in %: 100%
[8]; 1.25 g/ha, rated visually after about 3 weeks vs untreated controls, 100% = plants have died
  Post-emergence action at 1.25 g/ha against ECHCG in %: 80%
[8]; dosage 5 g/ha
  Post-emergence action against ECHCG in %: 100%
[8]; dosage 20 g/ha
  Post-emergence action against ECHCG in %: 100%
Oryza sativa (ORYSA); 1.25 g/ha
  Post-emergence action against ORYSA (crop plant compatibility): 0%

## COCCOCCOC(=O)COc1ccccc1Oc1cc(-n2c(=O)cc(C(F)(F)F)n(C)c2=O)c(F)cc1Br [I.8-23]
[1]; 1.25 g/ha
  Post-emergence action against TRZAS (crop plant compatibility): 10%
[1]; 5 g/ha
  Post-emergence action against TRZAS (crop plant compatibility): 20%
[2]; dosage 1.25 g/ha
  Post-emergence action against PHBPU in %: 100%
[2]; dosage 5 g/ha
  Post-emergence action against PHBPU in %: 100%
[2]; dosage 20 g/ha
  Post-emergence action against PHBPU in %: 100%
[3]; 1.25 g/ha
  Post-emergence action at 1.25 g/ha against AMARE in %: 100%
[3]; 5 g/ha
  Post-emergence action at 5 g/ha against AMARE in %: 100%
[3]; 20 g/ha
  Post-emergence action at 20 g/ha against AMARE in %: 100%
Avena fatua (AVEFA)
  Post-emergence action at 20 g/ha against AVEFA in %: 80%
Veronica persica (VERPE); 1.25 g/ha
  Post-emergence action against VERPE: 80%
Veronica persica (VERPE); 5 g/ha
  Post-emergence action against VERPE: 100%
Veronica persica (VERPE); 20 g/ha
  Post-emergence action against VERPE: 100%
[4]; dosage 5 g/ha
  Post-emergence action against POLCO in %: 100%
[4]; dosage 20 g/ha
  Post-emergence action against POLCO in %: 100%
Viola tricolor (VIOTR); 1.25 g/ha
  Post-emergence action against VIOTR: 100%
Viola tricolor (VIOTR); 5 g/ha
  Post-emergence action against VIOTR: 100%
Viola tricolor (VIOTR); 20 g/ha
  Post-emergence action against VIOTR: 100%
[5]; 1.25 g/ha
  Post-emergence action at 1.25 g/ha against ABUTH in %: 100%
[5]; 5 g/ha
  Post-emergence action at 5 g/ha against ABUTH in %: 100%
[5]; 20 g/ha
  Post-emergence action at 20 g/ha against ABUTH in %: 100%
[6]; dosage 5 g/ha
  Post-emergence action against MATIN in %: 100%
[6]; dosage 20 g/ha
  Post-emergence action against MATIN in %: 100%
[7]; 5 g/ha
  Post-emergence action at 5 g/ha against ALOMY in %: 80%
[7]; 20 g/ha
  Post-emergence action at 20 g/ha against ALOMY in %: 100%
Setaria viridis (SETVI); 20 g/ha
  Post-emergence action against SETVI: 100%
Setaria viridis (SETVI); dosage 1.25 g/ha
  Post-emergence action against SETVI in %: 100%
Setaria viridis (SETVI); dosage 5 g/ha
  Post-emergence action against SETVI in %: 100%
[8]; dosage 5 g/ha
  Post-emergence action against ECHCG in %: 100%
[8]; dosage 20 g/ha
  Post-emergence action against ECHCG in %: 100%
Oryza sativa (ORYSA); 1.25 g/ha
  Post-emergence action against ORYSA (crop plant compatibility): 0%
Oryza sativa (ORYSA); 5 g/ha
  Post-emergence action against ORYSA (crop plant compatibility): 0%
Oryza sativa (ORYSA); 20 g/ha, crop plant compatibility
  Post-emergence action against ORYSA in %: 20%

Source: US20240025862A1, “SUBSTITUTED N-PHENYLURACILS AND SALTS THEREOF, AND USE THEREOF AS HERBICIDAL ACTIVE SUBSTANCES” (Bayer Aktiengesellschaft, priority 2020, published 2024)
